Here are results for five molecules from US9988430B2, “Stable GLP-1 based GLP-1/glucagon receptor co-agonists” (Novo Nordisk A/S, priority 2014, dated 2018).

The experiment addresses T1, human GLP-1 receptor (Homo sapiens, UniProt P43220).
T1 construct: expressed in transfected cells; host or cells: membranes of BHK cells, parent line BHKTS13, clone FCW467-12A
As to the kind of experiment: Assay (I)(a): GLP-1 receptor potency, CRE luciferase reporter gene assay in BHK cells. It is filed as cell-based. To be noted: BHK cells expressing human GLP-1 receptor, read-out: EC50 GLP-1R. Summed up: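 BHK cells (clone FCW467-12A/KZ10-1), 5×10EE3/well, exposed 3 h at 37° C to compound at 1×10EE-13 to 1×10EE-6 M final in medium with 2% ovalbumin and 0.2% Pluronic F-68. Luciferase luminescence read; EC50 (pM) from four-parameter fit.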
(In general: A reporter such as luciferase makes a cellular process visible.)

Structures are written as SMILES. *1 amine or outer side, *2 acyl side, *3 side chain or, on linkers, in order; H or OH if unused. Where a SMILES comes first, the peptide text is derived from it. Bridges are numbered along the chain shown (N, C = ends). Roman numbers before positions name the chains, in order. Side-chain parts run from the residue outwards. [ ]: non-standard residue; d: D form. The star is where a group is joined. C18 diacid = O=C(O)CCCCCCCCCCCCCCCCC(=O)*; γGlu = O=C(O)[C@H](CCC(=O)[*:2])N[*:1]; Desaminohistidyl = O=C(CCc1c[nH]cn1)*; Ac4c = NC1(C(=O)O)CCC1; AEEA = NCCOCCOCC(=O)O; Aib = CC(C)(N)C(=O)O

T1 sequence (P43220 24-463): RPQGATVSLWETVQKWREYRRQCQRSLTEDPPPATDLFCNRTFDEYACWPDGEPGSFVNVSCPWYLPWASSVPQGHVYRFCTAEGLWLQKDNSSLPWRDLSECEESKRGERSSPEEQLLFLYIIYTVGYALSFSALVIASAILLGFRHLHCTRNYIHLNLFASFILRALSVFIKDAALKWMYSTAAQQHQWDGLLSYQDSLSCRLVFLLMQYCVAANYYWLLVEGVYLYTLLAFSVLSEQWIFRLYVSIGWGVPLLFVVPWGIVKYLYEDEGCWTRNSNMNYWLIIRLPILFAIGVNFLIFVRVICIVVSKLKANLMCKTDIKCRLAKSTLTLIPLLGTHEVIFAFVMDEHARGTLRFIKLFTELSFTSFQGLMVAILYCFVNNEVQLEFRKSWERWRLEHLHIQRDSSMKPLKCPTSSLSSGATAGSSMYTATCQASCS

A word on the EC50: it is the concentration needed to bring the measured effect to its halfway point. `CC[C@H](C)[C@H](NC(=O)[C@H](Cc1ccccc1)NC(=O)[C@H](CCC(=O)O)NC(=O)[C@H](CCCNC(=N)N)NC(=O)[C@H](C)NC(=O)[C@H](C)NC(=O)[C@H](CCC(N)=O)NC(=O)[C@H](CCC(=O)O)NC(=O)[C@H](CCC(=O)O)NC(=O)[C@H](CC(C)C)NC(=O)[C@H](Cc1ccc(O)cc1)NC(=O)[C@H](CCCCN)NC(=O)[C@H](CO)NC(=O)[C@@H](NC(=O)[C@H](CC(=O)O)NC(=O)[C@H](CO)NC(=O)[C@@H](NC(=O)[C@H](Cc1ccccc1)NC(=O)[C@@H](NC(=O)CNC(=O)[C@H](Cc1c[nH]cn1)NC(=O)C1(NC(=O)CCc2c[nH]cn2)CCC1)[C@@H](C)O)[C@@H](C)O)C(C)C)C(=O)N[C@@H](C)C(=O)N[C@@H](Cc1c[nH]c2ccccc12)C(=O)N[C@@H](CC(C)C)C(=O)N[C@@H](CC(C)C)C(=O)N[C@@H](CCCCNC(=O)CNC(=O)[C@H](CO)NC(=O)[C@H](CCC(=O)O)NC(=O)CNC(=O)[C@H](CO)NC(=O)CC[C@H](NC(=O)CC[C@H](NC(=O)CCCCCCCCCCCCCCCCC(=O)O)C(=O)O)C(=O)O)C(=O)N[C@H](C(N)=O)[C@@H](C)O` [Example 9, N^ε34-[2-[[(2S)-2-[[(2S)-4-carboxy-2-[[2-[[(2S)-2-[[(4S)-4-carboxy-4-[[(4S)-4-carboxy-4-(17-carboxyheptadecanoylamino)butanoyl]amino]butanoyl]amino]-3-hydroxypropanoyl]amino]acetyl]amino]butanoyl]amino]-3-hydroxypropanoyl]amino]acetyl]-[Imp7,Acb8,His9,Lys18,Glu22,Arg26,Leu33,Thr35]-GLP-1-(7-35)-peptide amide] (I: Desaminohistidyl-[Ac4c]HGTFTSDVSKYLEEQAAREFIAWLLKT-NH2 / II: {C18 diacid-γGlu-γGlu}-SGESG; amide I:27-II:C): the EC50 amounted to 5 pM.

Take `CC[C@H](C)[C@H](NC(=O)[C@H](Cc1ccccc1)NC(=O)[C@H](CCC(=O)O)NC(=O)[C@H](CCCNC(=N)N)NC(=O)[C@H](C)NC(=O)[C@H](C)NC(=O)[C@H](CCCNC(=N)N)NC(=O)CNC(=O)[C@H](CCC(=O)O)NC(=O)[C@H](CC(C)C)NC(=O)[C@H](Cc1ccc(O)cc1)NC(=O)[C@H](CCCCN)NC(=O)[C@H](CO)NC(=O)[C@@H](NC(=O)[C@H](CC(=O)O)NC(=O)[C@H](CO)NC(=O)[C@@H](NC(=O)[C@H](Cc1ccccc1)NC(=O)[C@@H](NC(=O)CNC(=O)[C@H](Cc1c[nH]cn1)NC(=O)[C@H](C)NC(=O)CCc1c[nH]cn1)[C@@H](C)O)[C@@H](C)O)C(C)C)C(=O)N[C@@H](C)C(=O)N[C@@H](Cc1c[nH]c2ccccc12)C(=O)N[C@@H](CC(C)C)C(=O)N[C@@H](CC(C)C)C(=O)N[C@@H](CCCCNC(=O)COCCOCCNC(=O)COCCOCCNC(=O)CC[C@H](NC(=O)CC[C@H](NC(=O)CC[C@H](NC(=O)CCCCCCCCCCCCCCCCC(=O)O)C(=O)O)C(=O)O)C(=O)O)C(=O)N[C@H](C(N)=O)[C@@H](C)O` [Example 10, N^ε34-[2-[2-[2-[[2-[2-[2-[[(4S)-4-carboxy-4-[[(4S)-4-carboxy-4-[[(4S)-4-carboxy-4-(17-carboxyheptadecanoylamino)butanoyl]amino]butanoyl]amino]butanoyl]amino]ethoxy]ethoxy]acetyl]amino]ethoxy]ethoxy]acetyl]-[Imp7,His9,Lys18,Arg23,Arg26,Leu33,Thr35]-GLP-1-(7-35)-peptide amide] (Desaminohistidyl-AHGTFTSDVSKYLEGRAAREFIAWLLK([AEEA-AEEA-γGlu-γGlu-γGlu-C18 diacid])T-NH2): the EC50 stood at 8 pM.

As to `CC[C@H](C)[C@H](NC(=O)[C@H](Cc1ccccc1)NC(=O)[C@H](CCC(=O)O)NC(=O)[C@H](CCCNC(=N)N)NC(=O)[C@H](C)NC(=O)[C@H](C)NC(=O)[C@H](CCC(N)=O)NC(=O)[C@H](CCC(=O)O)NC(=O)[C@H](CCC(=O)O)NC(=O)[C@H](CC(C)C)NC(=O)[C@H](Cc1ccc(O)cc1)NC(=O)[C@H](CCCCN)NC(=O)[C@H](CO)NC(=O)[C@@H](NC(=O)[C@H](CC(=O)O)NC(=O)[C@H](CO)NC(=O)[C@@H](NC(=O)[C@H](Cc1ccccc1)NC(=O)[C@@H](NC(=O)CNC(=O)[C@H](Cc1c[nH]cn1)NC(=O)C(C)(C)NC(=O)CCc1c[nH]cn1)[C@@H](C)O)[C@@H](C)O)C(C)C)C(=O)N[C@@H](C)C(=O)N[C@@H](Cc1c[nH]c2ccccc12)C(=O)N[C@@H](CC(C)C)C(=O)N[C@@H](CC(C)C)C(=O)N[C@@H](CCCCNC(=O)COCCOCCNC(=O)COCCOCCNC(=O)CC[C@H](NC(=O)CCCCCCCCCCCCCCCCC(=O)O)C(=O)O)C(=O)N[C@H](C(N)=O)[C@@H](C)O` [Example 12, N^ε34-[2-[2-[2-[[2-[2-[2-[[(4S)-4-carboxy-4-(17-carboxyheptadecanoylamino)butanoyl]amino]ethoxy]ethoxy]acetyl]amino]ethoxy]ethoxy]acetyl]-[Imp7,Aib8,His9,Lys18,Glu22,Arg26,Leu33,Thr35]-GLP-1-(7-35)-peptide amide] (Desaminohistidyl-[Aib]HGTFTSDVSKYLEEQAAREFIAWLLK([AEEA-AEEA-γGlu-C18 diacid])T-NH2), the EC50 is 6 pM.

`CC[C@H](C)[C@H](NC(=O)[C@H](Cc1ccccc1)NC(=O)[C@H](CCC(=O)O)NC(=O)[C@H](CCCNC(=N)N)NC(=O)[C@H](C)NC(=O)[C@H](C)NC(=O)[C@H](CCCNC(=N)N)NC(=O)CNC(=O)[C@H](CCC(=O)O)NC(=O)[C@H](CC(C)C)NC(=O)[C@H](Cc1ccc(O)cc1)NC(=O)[C@H](CCCCN)NC(=O)[C@H](CO)NC(=O)[C@@H](NC(=O)[C@H](CC(=O)O)NC(=O)[C@H](CO)NC(=O)[C@@H](NC(=O)[C@H](Cc1ccccc1)NC(=O)[C@@H](NC(=O)CNC(=O)[C@H](Cc1c[nH]cn1)NC(=O)C1(NC(=O)CCc2c[nH]cn2)CCC1)[C@@H](C)O)[C@@H](C)O)C(C)C)C(=O)N[C@@H](C)C(=O)N[C@@H](Cc1c[nH]c2ccccc12)C(=O)N[C@@H](CC(C)C)C(=O)N[C@@H](CC(C)C)C(=O)N[C@@H](CCCCNC(=O)CNC(=O)[C@H](CO)NC(=O)[C@H](CCC(=O)O)NC(=O)CNC(=O)[C@H](CO)NC(=O)CC[C@H](NC(=O)CC[C@H](NC(=O)CCCCCCCCCCCCCCCCC(=O)O)C(=O)O)C(=O)O)C(=O)N[C@H](C(N)=O)[C@@H](C)O` [Example 20, N^ε34-[2-[[(2S)-2-[[(2S)-4-carboxy-2-[[2-[[(2S)-2-[[(4S)-4-carboxy-4-[[(4S)-4-carboxy-4-(17-carboxyheptadecanoylamino)butanoyl]amino]butanoyl]amino]-3-hydroxypropanoyl]amino]acetyl]amino]butanoyl]amino]-3-hydroxypropanoyl]amino]acetyl]-[Imp7,Acb8,His9,Lys18,Arg23,Arg26,Leu33,Thr35]-GLP-1-(7-35)-peptide amide] (I: Desaminohistidyl-[Ac4c]HGTFTSDVSKYLEGRAAREFIAWLLKT-NH2 / II: {C18 diacid-γGlu-γGlu}-SGESG; amide I:27-II:C): the EC50 came out at 12 pM.

In the case of `CC[C@H](C)[C@H](NC(=O)[C@H](Cc1ccccc1)NC(=O)[C@H](CCC(=O)O)NC(=O)[C@H](CCCNC(=N)N)NC(=O)[C@H](C)NC(=O)[C@H](C)NC(=O)[C@H](CCCNC(=N)N)NC(=O)CNC(=O)[C@H](CCC(=O)O)NC(=O)[C@H](CC(C)C)NC(=O)[C@H](Cc1ccc(O)cc1)NC(=O)[C@H](CCCNC(=N)N)NC(=O)[C@H](CO)NC(=O)[C@@H](NC(=O)[C@H](CC(=O)O)NC(=O)[C@H](CO)NC(=O)[C@@H](NC(=O)[C@H](Cc1ccccc1)NC(=O)[C@@H](NC(=O)CNC(=O)[C@H](Cc1c[nH]cn1)NC(=O)C(C)(C)NC(=O)CCc1c[nH]cn1)[C@@H](C)O)[C@@H](C)O)C(C)C)C(=O)N[C@@H](C)C(=O)N[C@@H](Cc1c[nH]c2ccccc12)C(=O)N[C@@H](CC(C)C)C(=O)N[C@@H](CC(C)C)C(=O)N[C@@H](CCCCNC(=O)CC[C@H](NC(=O)CC[C@H](NC(=O)COCCOCCNC(=O)CC[C@H](NC(=O)CC[C@H](NC(=O)CCCCCCCCCCCCCCCCC(=O)O)C(=O)O)C(=O)O)C(=O)O)C(=O)O)C(=O)NCC(=O)N[C@@H](C)C(=O)NCC(=O)O` [Example 35, N^ε34-[(4S)-4-carboxy-4-[[(4S)-4-carboxy-4-[[2-[2-[2-[[(4S)-4-carboxy-4-[[(4S)-4-carboxy-4-(17-carboxyheptadecanoylamino)butanoyl]amino]butanoyl]amino]ethoxy]ethoxy]acetyl]amino]butanoyl]amino]butanoyl]-[Imp7,Aib8,His9,Arg18,Arg23,Arg26,Leu33,Ala36]-GLP-1-(7-37)-peptide] (Desaminohistidyl-[Aib]HGTFTSDVSRYLEGRAAREFIAWLLK([γGlu-γGlu-AEEA-γGlu-γGlu-C18 diacid])GAG-OH), the EC50 turned out to be 3 pM.
